Data: article PMC3724849 (PLoS ONE, 2013)
“And” between values parts separate entries of the source, which are not always exact repeats. Identical values can stand only once.

Tests used:
[1] = tested on: excitatory synapses in CA1 of organotypic hippocampal brain slices; test: Synaptic plasticity (LTP, LTD) in organotypic hippocampal slices; format: cell-based, rat; conditions: p<0.05
Experimental: (§1) Interface cultures of hippocampal slices were made from 7–8 day old Sprague Dawley rats as previously described. Briefly, hippocampi were dissected in minimum essential medium (MEM; Invitrogen, Eugene, OR) with 15 mm HEPES and 10 mm Tris buffer (Invitrogen). Four-hundred micrometer slices were cultured on Millicell CM culture plate inserts (Millipore, Temecula, CA). The culture medium consisted of 50% MEM, 25% HBSS, and 25% horse serum, with 12.5 mM HEPES buffer and penicillin (100 U/ml)/streptomycin (100 µg/ml) (all from Invitrogen). Cultures were maintained in 5% CO2, at 37°C. Slices were maintained in vitro for one week prior to transfection.
Patch clamp recordings were made in oxygenated Artificial Cerebrospinal Fluid (ACSF) containing (in mM) 127 NaCl, 2.5 KCl, 1.3 MgSO4, 2.5 CaCl2, 1.25 Na2HPO4, 25 NaHCO3, 25 glucose. For voltage-clamp recordings patch pipette internal solution consisted of 120 Cs-methanesulfonate, 20 CsCl, 0.5 EGTA, 10 HEPES, 2.5 MgCl2, 4 Na2ATP, 0.3 NA3GTP, 10 Phosphocreatine, and 5 mM QX-314 Br. Miniature excitatory postsynaptic currents (mEPSCs) were recorded in the presence of 100 µM Picrotoxin (PTX) and 1 µM tetrodotoxin (TTX) at a holding potential of −70 mV. […] Significance of differences between mean frequencies or amplitudes of mEPSCs or mIPSCs were assessed using a student’s t-test. […]

[2] = tested on: CA1 neurons of organotypic hippocampal brain slices; test: Current-clamp intrinsic excitability in organotypic hippocampal slices; format: cell-based, rat; conditions: SAHA vs vehicle treated slices; p>0.05
Experimental: as §1
Patch clamp recordings were made in oxygenated Artificial Cerebrospinal Fluid (ACSF) containing (in mM) 127 NaCl, 2.5 KCl, 1.3 MgSO4, 2.5 CaCl2, 1.25 Na2HPO4, 25 NaHCO3, 25 glucose. For voltage-clamp recordings patch pipette internal solution consisted of 120 Cs-methanesulfonate, 20 CsCl, 0.5 EGTA, 10 HEPES, 2.5 MgCl2, 4 Na2ATP, 0.3 NA3GTP, 10 Phosphocreatine, and 5 mM QX-314 Br. Miniature excitatory postsynaptic currents (mEPSCs) were recorded in the presence of 100 µM Picrotoxin (PTX) and 1 µM tetrodotoxin (TTX) at a holding potential of −70 mV. Miniature inhibitory postsynaptic currents (mIPSCs) were recorded in the presence of 10 µM 2,3-Dioxo-6-nitro-1,2,3,4-tetrahydrobenzo[f]quinoxaline-7-sulfonamide (NBQX), 50 µM D-(−)-2-Amino-5-phosphonopentanoic acid (D-AP5) and 1 µM TTX at a holding potential of 0 mV. Significance of differences between mean frequencies or amplitudes of mEPSCs or mIPSCs were assessed using a student’s t-test. […]. For experiments measuring open NMDAR block synaptic inputs were stimulated locally using a bipolar stimulation electrode and NMDAR EPSCs were isolated using NBQX and PTX and measured at −70 mV with external MgCl2 lowered to 0.5 mM. […] For synaptic plasticity experiments synaptic inputs were stimulated locally using a bipolar stimulation electrode and EPSCs were measured at −70 mV. […] Significance of differences in normalized EPSC amplitudes between treatment groups following plasticity induction were assessed using a student’s t-test. […] Action potential threshold was measured during the smallest depolarizing current injection steps that triggered spiking. Input resistance was calculated from the steady-state response to the smallest hyperpolarizing current injection steps to avoid contamination from hyperpolarization-induced inward currents (h-current). The h-current “sag” was measured based on the difference between the maximal and steady-state voltage responses to strong hyperpolarizing current injection steps. Significance of differences in all measures between treatment groups were assessed using a student’s t-test.

Tg2576 mice [3] = test: Open field test in Tg2576 mice; format: in vivo, mouse; conditions: dosing day 32, 30 minutes, mean ±SEM
Tg2576 mice [4] = test: Tg2576 fear conditioning; format: in vivo, mouse; conditions: 25 mg/kg or 50 mg/kg SAHA i.p. daily vs vehicle; p>0.05
[5] = tested on: CA1 pyramidal neurons of organotypic hippocampal brain slices; test: Patch clamp of synaptic transmission in organotypic hippocampal slices; format: cell-based, rat
[6] = Pharmacokinetic study after single i.p. injection
C57BL/6 mice = test: SmartCube high-content behavioral phenotyping; format: in vivo, mouse; conditions: for discrimination index: p<0.001
Experimental: SmartCube experiments were conducted at Psychogenics, Inc (Tarrytown, NY). […] The SmartCube® system can measure numerous spontaneous behaviors and responses to challenges in the same testing environment. The hardware includes force sensors and a number of aversive stimuli used to elicit behavior. Three high-resolution video cameras provide constant 3D view of the mouse in the SmartCube® apparatus throughout the testing period. Digital videos of the subjects were processed with computer vision algorithms to extract over 2,000 independent measures including frequency and duration of behavioral states such as grooming, rearing, etc., and many other features obtained during the test session. […] The database comprises 14 classes of drugs with some of the major classes, such as the antidepressant class, comprising several subclasses with representatives of most of the drugs in the market.

[7] = Protein binding in plasma and brain; format: in vitro ADME
[8] = 0.5 µM SAHA for 3–4 days vs vehicle, p>0.05
[9] = single injection, valproate 225 mg/kg

SMILES: O=C(CCCCCCC(=O)Nc1ccccc1)NO [SAHA, Suberoylanilide hydroxamic acid]
- LTP induction ([1]; induction protocol subthreshold in vehicle treated slices): readily evoked LTP
- LTD induction ([1]; protocol that readily induced LTD in vehicle treated slices): could not produce LTD
- action potential threshold [2]: unaltered
- input resistance [2]: unaltered
- membrane sag (hyperpolarization-induced inward current) [2]: unaltered
- number of action potentials elicited by 500 ms current injection pulses [2]: no difference
- total distance traveled in the open field test (Tg2576 mice [3]; 25 mg/kg i.p. daily): 39.6±6.1 m
- total distance traveled in the open field test (Tg2576 mice [3]; 50 mg/kg i.p. daily): 34.2±5.2 m
- percentage of time freezing in response to the context, altered context, or cue (Tg2576 mice [4]): no effect of treatment
- percentage of time spent freezing during conditioning (Tg2576 mice [4]): no effect of treatment
- median amplitude of mEPSCs ([5]; 0.5 µM SAHA for 3–4 days vs vehicle, p<0.05): significantly increased
- amplitude of mIPSCs [5, 8]: did not significantly alter
- frequency of mIPSCs [5, 8]: did not significantly alter
- mEPSC frequency (median interval between events) [5, 8]: no significant change
- rate of NMDAR EPSC blockade by MK-801 ([5]; repetitive stimulation, SAHA vs vehicle treated slices, p>0.05): not different
- AUClast of free SAHA in the brain ([6]; 50 mg/kg i.p.): 0.07 µM·h
- Cmax of free SAHA in the brain ([6]; 50 mg/kg i.p.): 110 ± 20 nM and 110 nM
- AUClast of free SAHA in the brain ([6]; 150 mg/kg i.p.): 0.36 µM·h
- Cmax of free SAHA in the brain ([6]; 150 mg/kg i.p.): 100 ± 10 nM
- behavioral activity (C57BL/6 mice; daily for 14 days, higher dose of SAHA (150 mg/kg)): not behaviorally active
- drug class activity signature (C57BL/6 mice; daily for 14 days, lower dose of SAHA (50 mg/kg)): not consistent with any known therapeutic signal
- behavioral activity (C57BL/6 mice; single injection of 50 mg/kg or 150 mg/kg SAHA): behaviorally inactive
- bound to protein, brain ([7]; brain): 87.0%
- bound to protein, plasma ([7]; plasma): 40.7%

SMILES: CCCC(CCC)C(=O)O [valproate]
- drug class activity signature (C57BL/6 mice; daily for 14 days, valproate): predominantly anxiolytic signature
- discrimination index (C57BL/6 mice; daily for 14 days, valproate): 98%
- drug class activity signature (C57BL/6 mice; [9]): strong anxiolytic signature and a mild psychostimulant signature
- discrimination index (C57BL/6 mice; [9]): 100%
